Laboratory results reported in patent publication US4177292A, “Novel 5H-benzocyclohepten-7-amines” (Roussel Uclaf, priority 1977, dated 1979).
Counter-ions that a name gives are not always drawn. Like-named read-outs stand apart in the source and are kept apart here.

Legend:
dogs = test: Anorexigenic activity; assay type: in vivo, dog; conditions: oral (gelules), 10 mg/kg, starved about 15 hours
Experimental: This activity was determined on dogs by the method of Adams et al [J. Pharm. Sci., Vol. 53 (1964), p. 1405] in which the animals received as food exclusively U.A.R. mash with a base of 800 g per day per dog. On the day of the test of a presumed anorexigenic agent, the daily individual ration of the dogs was divided into approximately equal small balls (15 to 20 g) which were offered to the dogs every 10 minutes for 8 hours. Normally the animals regularly accept the small balls successively when they are presented. […] The hourly number of refusal is determined in the animals treated with the same dose and is expressed as a percentage of the total hourly number of small balls presented per […]. At the start of the test, the animals had been starved for about 15 hours although they had drinking water available. They are deprived of water during the test. The test was effected with a group of 7 bastard dogs both male and female weighing between 11.4 and 14 kg (12.1 kg average) selected as a function of their response to a weak dose (5 mg/kg) of fenfluramine.

Acute toxicity = conditions: mouse, in vivo, ip; mice, intraperitoneal, determined 48 hours later; read-out: DL50
Experimental: The DL50 dose which kills 50% of mice after intraperitoneal administration of the test compound was determined 48 hours later and the DL50 for the compounds is reported in Table III.

[1] = tested on: uptake of 14C-5HT in synaptosomes; test: Inhibition of Serotonine uptake in vivo (synaptosomes prepared after intraperitoneal administration); conditions: Rattus norvegicus, ip, 5 mg/kg intraperitoneal, female rats 19 to 21 days old
Experimental: (§1) The inhibition of serotonine (5HT) uptake was measured in impure synaptosomes prepared from the entire brain of a female rat 19 to 21 days old using the technique of Kannengiesser et al [Biochemical Pharmacology, Vol. 22, (1973) p. 73].
The tested products were intraperitoneally administered to a groups of female rats 19 to 21 days old at doses of 5 mg/kg. After 1 hour or 24 hours, the brain was removed and synaptosomes were prepared and placed in an incubator in the presence of 14 C-5HT as indicated in the previous test.

[2] = tested on: serotonine (5HT) uptake in synaptosomes; test: Inhibition of Serotonine uptake in vitro; assay type: biochemical; conditions: impure synaptosomes from entire brain of female rat 19 to 21 days old; 37° C., 5 minutes; 14C-5HT 10^-7 M; read-out: Inhibiting concentration IC50 of 14C-5HT uptake
Experimental: as §1

[3] = 1 hour, read-out: % inhibition of 14C-5HT uptake after 1 Hour
[4] = 24 hours, read-out: % inhibition of 14C-5HT uptake after 24 Hours

Compound	oral anorexigenic activity (refusal of food balls) (dogs)	LD50 at 48 h (Acute toxicity)	inhibition at 5 mg/kg [1, 3]	inhibition at 5 mg/kg [1, 4]	IC50 [2]
CN(C)[C@H]1CCc2ccccc2[C@@H](Oc2ccc([N+](=O)[O-])cc2)C1 (relative stereo) [Example 1, fumarate of cis N,N-dimethyl-5-[4-nitrophenyloxy]-6,7,8,9-tetrahydro-5H-benzocycloheptene-7-amine]	important oral anorexigenic activity	100 mg/kg	58 ± 4%	67 ± 2%	0.34 µM
CN(C)[C@@H]1CCc2ccccc2[C@H](Oc2ccc(N)cc2)C1.Cl.Cl (relative stereo) [Example 2, cis N,N-dimethyl-5-[4-aminophenoxy]-6,7,8,9-tetrahydro-5H-benzocycloheptene-7-amine dihydrochloride]		200 mg/kg			14 µM
CN(C)[C@@H]1CCc2ccccc2[C@H](Oc2ccc(C(F)(F)F)cc2)C1.Cl (relative stereo) [Example 3, cis N,N-dimethyl-5-[4-trifluoromethylphenoxy]-6,7,8,9-tetrahydro-5H-benzocycloheptene-7-amine hydrochloride]		150 mg/kg			0.76 µM
CN(C)[C@H]1CCc2ccccc2[C@H](Oc2ccc([N+](=O)[O-])cc2)C1.Cl (relative stereo) [Example 4, trans N,N-dimethyl-5-[4-nitrophenoxy]-6,7,8,9-tetrahydro-5H-benzocycloheptene-7-amine hydrochloride]		100 mg/kg	61 ± 2%	39 ± 4%	0.083 µM
CN(C)[C@@H]1CCc2ccccc2[C@H](Oc2ccccc2C(F)(F)F)C1.Cl (relative stereo) [Example 5, cis N,N-dimethyl-5-[2-trifluoromethylphenoxy]-6,7,8,9-tetrahydro-5H-benzocycloheptene-7-amine hydrochloride]		200 mg/kg			2.3 µM
CN[C@@H]1CCc2ccccc2[C@H](Oc2ccc(C(F)(F)F)cc2)C1.Cl (relative stereo) [Example 6, cis N-methyl-5-[4-trifluoromethylphenoxy]-6,7,8,9-tetrahydro-5H-benzocycloheptene-7-amine hydrochloride]		400 mg/kg	41 ± 3%	61 ± 3%	1.9 µM
CN(C)[C@@H]1CCc2ccccc2[C@H](Oc2ccc(Br)cc2)C1.Cl (relative stereo) [Example 7, cis N,N-dimethyl-5-[4-bromophenoxy]-6,7,8,9-tetrahydro-5H-benzocyclohepten-7-amine hydrochloride]		150 mg/kg	40 ± 3%	65 ± 2%	0.32 µM
CN(C)[C@@H]1CCc2ccccc2[C@H](Oc2ccccc2[N+](=O)[O-])C1.Cl (relative stereo) [Example 8, cis N,N-dimethyl-5-[2-nitrophenoxy]-6,7,8,9-tetrahydro-5H-benzocyclohepten-7-amine hydrochloride]		150 mg/kg			4 µM
COc1ccccc1O[C@@H]1C[C@H](N(C)C)CCc2ccccc21 (relative stereo) [Example 10, cis N,N-dimethyl-5-[2-methoxyphenoxy]-6,7,8,9-tetrahydro-5H-benzocyclohepten-7-amine hydrochloride]					1.3 µM
COc1ccc(O[C@@H]2C[C@H](N(C)C)CCc3ccccc32)cc1 (relative stereo) [Example 11, cis N,N-dimethyl-5-[4-methoxyphenoxy]-6,7,8,9-tetrahydro-5H-benzocyclohepten-7-amine hydrochloride]					1.3 µM
CN(C)[C@H]1CCc2ccccc2[C@@H](Oc2ccc([N+](=O)[O-])c(C(F)(F)F)c2)C1 (relative stereo) [Example 17, cis-N,N-dimethyl-5-[4-nitro-3-trifluoromethylphenoxy]-6,7,8,9,-tetrahydro-5H-benzocyclohepten-7-amine]		> 400 mg/kg			0.95 µM
CN(C)[C@H]1CCc2ccc(Cl)cc2[C@H](Oc2ccc([N+](=O)[O-])cc2)C1.Cl (relative stereo) [Example 18, trans N,N-dimethyl-3-chloro-5-[4-nitrophenoxy]-6,7,8,9-tetrahydro-5H-benzocyclohepten-7-amine hydrochloride]		100 mg/kg			1.5 µM
CN(C)[C@H]1CCc2ccc(Cl)cc2[C@@H](Oc2ccc([N+](=O)[O-])cc2)C1 (relative stereo) [Example 19, cis N,N-dimethyl-3-chloro-5-[4-nitrophenoxy]-6,7,8,9-tetrahydro-5H-benzocyclohepten-7-amino hydrochloride]		> 200 mg/kg			7.1 µM
